Assay results published in PubChem BioAssay (NCI).
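96-well plates; 48 h exposure; 5 concentrations. Endpoints by linear interpolation between flanking doses. Not reached: highest tested concentration assigned. TGI: concentration producing complete growth inhibition.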 Where a SMILES comes first, the peptide text is derived from it.

Assays:
Experiment in all cases: growth of human tumour cells (NCI), 48 h
U251 CNS = tested on: U251 CNS
LOX IMVI melanoma = tested on: LOX IMVI melanoma
HOP-62 NSCLC = tested on: HOP-62 NSCLC
NCI-H226 lung = tested on: NCI-H226 lung
MALME-3M melanoma = tested on: MALME-3M melanoma
HS 578T breast = tested on: HS 578T breast
K-562 leukemia = tested on: K-562 leukemia
SW-620 colon = tested on: SW-620 colon
HL-60(TB) leukemia = tested on: HL-60(TB) leukemia
HOP-92 NSCLC = tested on: HOP-92 NSCLC

Row | Structure (SMILES) | TGI (U251 CNS) [µM] | TGI (LOX IMVI melanoma) [µM] | TGI (HOP-62 NSCLC) [µM] | TGI (NCI-H226 lung) [µM] | TGI (MALME-3M melanoma) [µM] | TGI (HS 578T breast) [µM] | TGI (K-562 leukemia) [µM] | TGI (SW-620 colon) [µM] | TGI (HL-60(TB) leukemia) [µM] | TGI (HOP-92 NSCLC) [µM]
1 | CC(Cc1ccc2c(c1)OCO2)N(C)C(=O)C1=CCN(C)CC1 (stereo not drawn) | > 100 | > 100 | > 100 | > 100 | > 100 | > 100 | > 100 | > 100 | > 100 | –
2 | CC(=O)NC(CO)C(=O)NC(Cc1ccc(O)cc1)C(=O)NCC(N)=O (stereo not drawn) (Ac-Ser-Tyr-Gly-NH2; configuration not given here) | > 100 | > 100 | > 100 | > 100 | > 100 | – | > 100 | > 100 | > 100 | > 100
3 | CCOC(=O)NC(=S)NC(C)c1ccccc1 (stereo not drawn) | > 100 | – | > 100 | > 100 | > 100 | > 100 | > 100 | > 100 | – | –
4 | CCOP(=O)(OCC)C(=C1C=C(C(C)(C)C)C(=O)C(C(C)(C)C)=C1)P(=O)(OCC)OCC | > 10 | > 10 | > 10 | > 10 | 3.38 | > 10 | > 7.45 | 3.55 | > 7.36 | 6.37
5 | CSc1nc(-c2ccc(Cl)cc2)c(C#N)c(=O)[nH]1 | > 100 | – | > 100 | > 100 | – | > 100 | > 100 | > 100 | > 100 | 97.7
6 | CC(=O)Nc1nnc(S(=O)(=O)NC(=S)Nc2ccc(Cl)cc2)s1 | > 100 | > 100 | > 100 | – | > 100 | > 100 | > 100 | > 100 | > 100 | > 100
7 | CCOC(=O)c1c(NC(=O)c2ccc(Br)cc2)sc2c1CCCC2 | > 100 | – | > 100 | > 100 | – | > 100 | > 100 | > 100 | > 100 | –
8 | Cn1nc(C(=O)N2CC(CCl)c3c2cc([N+](=O)[O-])c2ccccc32)cc1NC(=O)Nc1cc(C(=O)N2CC(CCl)c3c2cc([N+](=O)[O-])c2ccccc32)nn1C (stereo not drawn) | > 100 | – | > 100 | > 100 | > 100 | – | > 100 | – | – | > 100
9 | CSc1nc(C)c(CCCl)c(Cl)n1 | > 100 | > 100 | > 100 | – | > 100 | > 100 | > 100 | > 100 | – | –
10 | CC(C)OP(=O)(OC(C)C)C(Nc1cccc(C(F)(F)F)c1)c1ccccc1 (stereo not drawn) | > 100 | > 100 | > 100 | > 100 | > 100 | > 100 | > 100 | – | > 100 | > 100
11 | Cc1ccc(F)c2c(=O)cc(-c3ccccc3)[nH]c12 | > 100 | > 100 | > 100 | > 100 | > 100 | – | > 100 | > 100 | > 100 | > 100
12 | CC(=O)C1C(=O)C(=O)N(c2ccc(Br)cc2)C1=O (stereo not drawn) | > 100 | > 100 | > 100 | > 100 | – | > 100 | – | > 100 | > 100 | > 100
